Measurements from US11919972B2, “Peptide libraries with non-canonical amino acids” (REGENERON PHARMACEUTICALS, INC., priority 2018, dated 2024).
Square brackets hold non-standard residues; d marks the D form. Ends that are not written are not given here. Ala(cPr) = N[C@@H](CC1CC1)C(=O)O

What was measured:
CD8+ SupT1 cells [1] = test: Screen of focused OBOC peptide library against CD8+ cells; assay type: cell-based; conditions: 10% FBS
Method: In addition to screening the focused library against recombinant human CD8 protein, the library was screened against cells. Non-specific PCCs were identified and removed by an anti-screen against CD8− Jurkat cells. The pre-cleared library entered into a screen against CD8+ SupT1 cells in 2% FBS for 1 h at 4° C. […] Non-canonical amino acids including cyclopropyl alanine, thiazolyl alanine, 4-fluorophenylalanine, and 1-methyltryptophan were identified among the hits. The consensus sequence from the hits in Table 6 is trrkr (SEQ ID NO:30).
Because of the large number of electrostatic hits in the screen with 2% FBS, additional screens were performed varying the blocking conditions to decrease the quantity of electrostatic hits. In particular, screens using 10% FBS gave no hits with any electrostatic amino acids. These conditions ultimately identified tnpks (SEQ ID NO:31) and tp(CyA)k(Fp).

CD8+ SupT1 cells [2] = test: Flow cytometry binding to CD8+ SupT1 and CD8− Jurkat cells; assay type: cell-based; conditions: FIG. 1
Source text: FIG. 1 is a graph binding of some example peptides to CD8+ cells (SuppT1 cells) and CD8− cells (Jurkat cells).
The hits identified in the non-canonical screen were further evaluated in CD8+ SupT1 and CD8− Jurkat cells by flow cytometry.

Substance | hit in CD8+ cell screen with varied blocking conditions (CD8+ SupT1 cells [1]) | binding to CD8 compared with parent compound tfpkk (CD8+ SupT1 cells [2])
tp(CyA)k(FP): hit sequence following CD8+ cell screen; also identified in 10% FBS screen ([dT][dP][Ala(cPr)][dK]X; not fully specified (residue 5); printed as tp(CyA)k(FP)) | identified | improved binding to CD8 over the parent compound
tnpks: hit identified in CD8+ cell screen using 10% FBS (TNPKS; (1)..(5) D amino acids) | identified | 
